For 61 compounds, melting point results are on record in a melting point compilation (Tetko et al.; mined from patent text by program, amines drawn as free bases though some values may be those of a salt).

Each structure is given as a SMILES string.

Regarding `CCc1nc2c(cnn2CC)c(NC2CCOCC2)c1CNC(=O)c1cccc(C(=O)NCc2cc(Cl)cc(-c3cccc(CN4CCCNCC4)c3)c2)c1`, the melting point lay in the range of 121 to 124 °C. In the case of `Brc1ccc2[nH]c(-c3ccccc3)c(CCN3CCCCC3)c2c1` it was 121 to 122 °C; in that of `O=C(NN=Cc1c(O)ccc2ccccc12)c1ccccc1O`, 265 °C; in that of `CN1Cc2c(C(=O)NN)ncn2-c2ccc(F)cc2C1=O`, 288 to 290 °C.

On to `CC(C)(C)OC(=O)COC(=O)CCc1c(OCC(=O)OC(C)(C)C)ccc2ccc(OCC(=O)OC(C)(C)C)cc12`, for which the melting point worked out at 118 °C. The compound `CC1C(=O)C2CCCCC2N2CCc3ccccc3C12` (stereo unspecified) returned a melting point of 144 to 148 °C.

`O=C(Nc1nn(-c2ccccc2)cc1C(=O)O)OCc1cc2cc(-c3ccccc3)ccc2o1` came in with a melting point of 221 °C. Take `O=C1Nc2cccc(I)c2C(=O)N2CC[C@@H]12`: the melting point lay in the range of 186 to 187 °C.

The compound `CCN(CC)CCOC(=O)c1ccc2nc3n(c(=O)c2c1)C(C)CC3=Cc1ccccc1` (stereo unspecified) gave a melting point of 125 to 130 °C. In the case of `COc1cc(C(=O)N2Cc3cccn3Cc3ccccc32)ccc1-n1c(C)ccc1C` it was 141 to 144 °C; in that of `Cc1oc(-c2ccccc2)nc1COc1ccc(CCCCCO)cc1`, 78 to 79 °C; in that of `COc1cc(C(F)(F)F)cc(Cl)c1-n1nc(C#N)c(S(=O)C(F)(F)F)c1N` (stereo unspecified), 195 °C.

For `CC(C)n1nc(-c2c(Oc3ccccc3)nc(N)nc2-c2ccccc2)ccc1=O`, the melting point lay within 218 to 221 °C.

Compound `COc1cc2nc(N3CCc4c(cccc4-c4cnccc4N)C3)[nH]c(=O)c2cc1OC` gave a melting point of over 300 °C. Next, `O=C(O)CCCNC(=O)c1n[nH]cc1NC(=O)c1ccccn1`: 227 to 228 °C; `O=C(c1ccc([N+](=O)[O-])cc1)c1c(Cl)cc(O)cc1Cl`: 118 to 120 °C. Next, `CN1c2cscc2C(=O)N(CCN2CCCC2)c2ccccc21`: 139 to 141 °C; `COc1ccn2nc(-c3ccc(F)cc3)c(-c3ccc(=O)n(C)n3)c2c1`: 221 to 222 °C. In the case of `COC(=O)c1ccc2c(-c3cccc(OC)c3)nc(=O)n(C(C)C)c2c1` it was 164 to 167 °C; in that of `O=[N+]([O-])c1cc(I)ccc1Nc1cccc(-c2cncnc2)c1`, 214 to 217 °C; in that of `COc1c(Cl)ccc(-c2cc(N)c(Cl)c(C(=O)NOC3C=CCCC3)n2)c1F` (stereo unspecified), 180 to 182 °C. In the case of `Cc1sc(-c2ccccc2)nc1COc1cc(CO)on1`, the melting point lay in the range of 84 to 85 °C. In the case of `CC1CCC(=NN)c2ncc(C(=O)O)c(=O)n21` (stereo unspecified), the melting point lay within 202 to 203 °C. In the case of `ONCc1ccc(N2CCC3(CC2)OCCO3)cc1` it was 107 to 109 °C; in that of `COC(=O)c1ccc2cc(OC)ccc2n1`, 129 °C. Next, `CCOC(=O)N1Cc2ccccc2P1(C)=O` (stereo unspecified): 102 to 104 °C; `Cc1cc(C(=O)N2Cc3ccc(C(=O)C(Cl)(Cl)Cl)n3Cc3ccccc32)ccc1I`: 163 °C. `O=C1C=C(c2ccc(O)cc2)S(=O)(=O)c2ccccc21` gave a melting point of 222 to 224 °C. As to `Cc1cc(-n2cnnn2)cc2c1NC(=O)CC2`, the melting point lay in the range of 271 to 272 °C.

`Cc1ccc(S(=O)(=O)n2c(=O)[nH]c3cc(Cl)ccc3c2=O)cc1C` yielded a melting point of over 250 °C.

For the compound `O=C(O)CCOc1ccc(CCNC(=O)C2Cc3ccccc3N2S(=O)(=O)c2ccc(-c3cccc(C(F)(F)F)c3)cc2)cc1` (stereo unspecified), the melting point amounted to 70 °C.

`CCOC(=O)Cc1sc(Sc2cc3ccccc3c(Cl)n2)nc1C` showed a melting point of 115 to 117 °C. Turning to `COC(=O)CCC(C)C(=O)N[C@@H](C)C(=O)OCc1ccccc1` (stereo partly specified), the melting point lay within 97 to 99 °C. In the case of `O=c1[nH]c(=O)n(Cc2ccc(Cl)cc2)c2nc[nH]c12` it was 304 to 310 °C. For `CCOC(=O)n1c(=O)n(CCN2CCN(c3ccccc3OC)CC2)c(=O)c2sccc21`, the melting point is 121 to 122 °C. Compound `C[C@@H](n1ncn(-c2ccc(O)cc2)c1=O)[C@](O)(Cn1cncn1)c1ccc(F)cc1F` had a melting point of 242 °C. In the case of `CC(=O)CSC1=CC(=O)CC(c2ccccc2Cl)C1` (stereo unspecified) it was 81 to 82 °C.

As to `COCOc1c(C)cc(-c2ccc(C(=O)O)cc2)cc1C`, the melting point fell in the range of 153 to 154 °C. `COc1ccc(N2C(=O)[C@@H](OC(C)=O)[C@H]2c2ccccc2)cc1` (relative stereo) registered a melting point of 163 °C.

Compound `O=Cc1cc(F)cc(Br)c1F` had a melting point of 36 to 38 °C.

Regarding `Fc1ccc(-c2cc(Br)sc2-c2ccc(F)cc2)cc1`, the melting point lay in the range of 91 to 93 °C.

As for `COP(=O)(CCC(C)(C)c1cc(O)c(C(C)(C)C)cc1O)OC`, the melting point lay within 193 to 195 °C. In the case of `O=c1ccn(CC(O)CO)c(Cc2ccccc2)c1O` (stereo unspecified) it was 185 to 186 °C. Next, `CON=C(C(=O)N[C@@H]1C(=O)N[C@@H]1C(=O)N(C)C)c1csc(NC(=O)CCl)n1` (relative stereo): 160 to 165 °C. In turn, `Cc1c(C)c2c(c(C)c1NC(=O)C(=O)C(C)(C)C)C(c1ccc(C(C)C)cc1)CO2` (stereo unspecified) yielded a melting point of 142 to 143 °C.

Compound `CCCCCCCCCCCCCCCCCCOc1ccc([N+](=O)[O-])cc1[N+](=O)[O-]` registered a melting point of 63.5 to 64 °C. In the case of `CSCc1c(C(=O)NN2CCCCC2)nn(-c2ccc(Cl)cc2Cl)c1-c1ccc(Cl)cc1` it was 183 °C.

As for `CCN(CC)C(=O)c1ccc(Cl)c(C2(C)C(=O)N(Cc3ccc(OC)cc3OC)c3ccccc32)c1` (stereo unspecified), the melting point is 172 °C.

In turn, `COc1ccc(-n2nc(Sc3ccc(C)cc3)c(C)c(C#N)c2=O)cc1` registered a melting point of 148 to 149 °C. Next, `CC(=O)Nc1ccc(C=CC2=NNC(=O)C(C)(C)C2)cc1`: 255 to 257 °C; `CC1C(O)C(C(C)(C)O)C(=O)N1c1ccc(C#N)c(Cl)c1` (stereo unspecified): 131 to 132 °C; `CCc1cc(OCc2ccc(-c3ccccc3-c3nnnn3-c3ccc(C#N)cc3)cc2)c2ccccc2n1`: 165 to 166 °C. Next, `CC(C)(O)C(=O)Nc1ccc2ccccc2c1`: 155 to 157 °C; `CCOC(=O)NCCS(=O)CC(=O)O` (stereo unspecified): 93.1 to 94.1 °C. In turn, `CCCCCCCCCCCCCCCCSCC(CNS(=O)(=O)CCCCl)COC` (stereo unspecified) yielded a melting point of 41.5 to 43 °C. Compound `CCOC(=O)C1=Cc2cc(C(=O)Cc3ccccc3)ccc2OC1C(F)(F)F` (stereo unspecified) yielded a melting point of 136 to 138 °C. In the case of `O=C(N=NC=C(Cl)Cl)c1ccccc1` it was 50 to 51 °C; in that of `CCCCCCCCCCCCn1nnc(C(C)(C)S(=O)(=O)Nc2c(C(C)C)cccc2C(C)C)n1`, 63 to 65 °C; in that of `OC1=Cc2ccccc2C=Cc2cc(Br)ccc21`, 148 to 151 °C. Next, `O=C1C=C2CCCCC2N1c1ccc(OCCN2CCOCC2)cc1` (stereo unspecified): 96 °C; `CN(c1cc(OCCCS(C)(=O)=O)cc2cc(C(=O)NCC(CN3CCN(S(C)(=O)=O)CC3)SCc3ccccc3)[nH]c12)S(=O)(=O)c1ccccn1` (stereo unspecified): 195 to 196 °C.

One may read the melting point as the temperature of the solid-liquid transition.
